Source: patent US20120029177A1, “HETEROCYCLE-AMINO ACID DERIVATIVES FOR TARGETING CANCER TISSUE AND RADIOACTIVE OR NON-RADIOACTIVE LABELED COMPOUNDS THEREOF” (SNU R&DB FOUNDATION, priority 2009, published 2012)
Each block holds one compound with its values, some of them ahead of it.

Experiments:
[1] = test system: SNU-C4 xenografted nude mice; assay: Biodistribution study in SNU-C4 xenografted nude mice after intravenous injection; format: in vivo, mouse; conditions: for % ID/g Tumor: SNU-C4 tumor
Experimental: Human colon cancer cell line SNU-C4 was cultured in RPMI1640 media containing 10% fetal bovine serum and harvested using trypsin. The cells were washed using 10 mL PBS and centrifugation at 3,000 rpm. Each nude mouse was injected with 2×10^5 cells/0.1 mL on the right shoulder subcutaneously. On 13 days post-injection, each 10 μCi/0.1 mL of ^68Ga labeled agent was injected into the xenografted mice through the tail vein. The injected mice were sacrificed at 10 min, 30 min, 1 hr, and 2 hr, cancer, blood, muscle, heart, liver, spleen, stomach, intestine, and bone were obtained, weighed, and their radioactivities were counted. The results were expressed as percentages of injected dose per gram tissue (% ID/g).

U87MG cells = assay: In vitro cell uptake, U87MG (FIG. 1a); format: cell-based, human; conditions: controls ^68Ga-DOTA, ^68Ga-NOTA
Experimental: Human colon cancer cell line SNU-C4 was purchased from Korea Cell Line Bank (KCLB). Human thyroid cell line ARO, human liver cancer cell line Hep3B, human glioma cell line U251MG and U87MG, and mouse colon cell line CT-26 were purchased from American Type Culture Collection (ATCC). SNU-C4 and ARO were culture in RPMI1640 (Welgene Inc., Korea) and Hep3B, U251 MG, U87MG, and CT-26 were cultured in DMEM (Welgene Inc., Korea). Penicillin, streptomycin and amphotericin B (10,000 IU/mL, 10 mg/mL and 25 μg/mL, respectively, Mediatech Inc., U.S.A.) 1% mixture and fetal bovine serum (Welgene Inc., Korea) were added to all cell culture media. Cell culture was done in 37° C. incubator with supply of 5% CO2.
About 1.8×10^5 cells/mL CT-26 and 1.2×10^5 cells/mL U87MG were put into 24-well incubation plate and incubated for 20 hr. When the each well was about 80% confluent with cells, 296 kBq/0.5 mL of ^68Ga labeled agent was added to each well. Culture supernatants were discarded at each time point and cells were washed with ice-cooled Hank's balanced salt solution (HBSS, pH7.3, Gibco, U.S.A.) 2 times. The cells were dissolved by 0.5% sodium dodecylsulfate (SDS), recovered and counted using a gamma counter (Packard, Can berra Co., U.S.A.). Total protein amount in each sample was measured by bicinchonic acid (BCA, Pierce, U.S.A.) method.

Hep3B cells = assay: In vitro cell uptake, Hep3B (FIG. 1c); format: cell-based, human; conditions: control ^68Ga-NOTA
[2] = test system: SNU-C4 xenografted nude mice; assay: PET imaging of tumor xenografted mice; format: in vivo, mouse; conditions: PET at 1 and 2 hr post-injection, FIG. 2
Experimental: Human colon cancer cell line SNU-C4 was cultured in RPMI1640 media containing 10% fetal bovine serum and harvested using trypsin. The cells were washed using 10 mL PBS and centrifugation at 3,000 rpm. Each nude mouse was injected with 2×10^5 cells/0.1 mL on the right shoulder subcutaneously. On 14 days post-injection, each 10 μCi/0.1 mL of ^68Ga labeled agent was injected into the xenografted mice through the tail vein. The injected mice were anesthetized using 2% isoflurane, PET images were obtained at 1 and 2 hr post-injection using rodent R4, microPET scanner (Concorde Microsystem Inc.). The images were analyzed using ASIPro software (Concorde Microsystem Inc.).

[3] = 10 min after intravenous injection
[4] = 30 min after intravenous injection
[5] = 1 hr after intravenous injection
[6] = 2 hr after intravenous injection

% ID/g Tumor [1, 3]: 2.87 ± 0.58 % ID/g | % ID/g Tumor [1, 4]: 1.40 ± 0.43 % ID/g | % ID/g Tumor [1, 5]: 0.73 ± 0.25 % ID/g | % ID/g Tumor [1, 6]: 0.61 ± 0.34 % ID/g | tumor uptake compared with the control heterocyclic compound (in words) ([1]; SNU-C4 xenografted nude mice, 10 min to 2 hr): higher and increasing by time | tumor uptake relative to that of ^68Ga-NOTA ([1]; at 10 min): 1.07 times | tumor uptake relative to that of ^68Ga-NOTA ([1]; at 30 min): 1.09 times | tumor uptake relative to that of ^68Ga-NOTA ([1]; at 1 hr): 1.24 times | tumor uptake relative to that of ^68Ga-NOTA ([1]; at 2 hr): 1.42 times | % ID/g Blood [1, 3]: 7.46 ± 0.78 % ID/g | % ID/g Blood [1, 4]: 2.69 ± 0.59 % ID/g | % ID/g Blood [1, 5]: 0.73 ± 0.05 % ID/g | % ID/g Blood [1, 6]: 0.15 ± 0.03 % ID/g | % ID/g Bone [1, 3]: 2.22 ± 0.34 % ID/g | % ID/g Bone [1, 4]: 1.05 ± 0.35 % ID/g | % ID/g Bone [1, 5]: 0.47 ± 0.09 % ID/g | % ID/g Bone [1, 6]: 0.10 ± 0.07 % ID/g | % ID/g Heart [1, 3]: 2.13 ± 0.13 % ID/g | % ID/g Heart [1, 4]: 0.71 ± 0.17 % ID/g | % ID/g Heart [1, 5]: 0.26 ± 0.03 % ID/g | % ID/g Heart [1, 6]: 0.10 ± 0.05 % ID/g | % ID/g Intestine [1, 3]: 1.74 ± 0.22 % ID/g | % ID/g Intestine [1, 4]: 0.77 ± 0.19 % ID/g | % ID/g Intestine [1, 5]: 0.44 ± 0.07 % ID/g | % ID/g Intestine [1, 6]: 0.35 ± 0.11 % ID/g | % ID/g Kidney [1, 3]: 20.96 ± 7.35 % ID/g | % ID/g Kidney [1, 4]: 9.07 ± 1.68 % ID/g | % ID/g Kidney [1, 5]: 5.81 ± 0.57 % ID/g | % ID/g Kidney [1, 6]: 4.04 ± 0.63 % ID/g | % ID/g Liver [1, 3]: 2.08 ± 0.25 % ID/g | % ID/g Liver [1, 4]: 1.34 ± 0.22 % ID/g | % ID/g Liver [1, 5]: 1.05 ± 0.04 % ID/g | % ID/g Liver [1, 6]: 0.84 ± 0.18 % ID/g | % ID/g Muscle [1, 3]: 2.29 ± 0.52 % ID/g | % ID/g Muscle [1, 4]: 0.87 ± 0.33 % ID/g | % ID/g Muscle [1, 5]: 0.26 ± 0.05 % ID/g | % ID/g Muscle [1, 6]: 0.06 ± 0.04 % ID/g | % ID/g Spleen [1, 3]: 1.84 ± 0.10 % ID/g | % ID/g Spleen [1, 4]: 0.93 ± 0.14 % ID/g | % ID/g Spleen [1, 5]: 0.55 ± 0.07 % ID/g | % ID/g Spleen [1, 6]: 0.48 ± 0.11 % ID/g | % ID/g Stomach [1, 3]: 2.46 ± 0.31 % ID/g | % ID/g Stomach [1, 4]: 0.79 ± 0.17 % ID/g | % ID/g Stomach [1, 5]: 0.33 ± 0.08 % ID/g | % ID/g Stomach [1, 6]: 0.18 ± 0.05 % ID/g
Structure (SMILES): NC(CNC(=O)CN1CCN(CC(=O)[O-])CCN(CC(=O)[O-])CC1)C(=O)[O-].[68Ga+3] (centres unmarked) [^68Ga-NOTA-ala]
tumor cell uptake versus control agents (U87MG cells): significantly increase tumor cell uptakes | tumor cell uptake versus control agents (Hep3B cells): significantly increase tumor cell uptakes | PET image quality [2]: the highest quality image | tumor uptake in PET images [2]: high tumor uptakes

Structure (SMILES): NC(CCCCNC(=O)CN1CCN(CC(=O)[O-])CCN(CC(=O)[O-])CC1)C(=O)[O-].[68Ga+3] (centres unmarked) [^68Ga-NOTA-lys]
tumor cell uptake versus control agents (Hep3B cells): significantly increase tumor cell uptakes
